Patent US4073935A, “Substituted propanol-(2)-derivatives and their nicotinic acid esters, and process for their preparation, and the use thereof as hypolipemic drugs” (Klinge Pharma GmbH & Co., priority 1974, dated 1978)
Read-outs that look alike come from different tables or passages of the source.

Test system: serum lipids
Experiment: Lipid-lowering action in normolipemic rats
Assay type: in vivo
Conditions: Rattus norvegicus, 72 h, 4 × 100 mg/kg oral over 3 days, male Wistar rats, vs controls, X ± Sx
Procedure: Lipid-lowering action was tested on groups of 10 male Wistar rats (Ivanovas-Kisslegg), weight 200-220 g, normolipemic, or ordinary ration ("ssniff" complete feed).
The test compounds were taken up in an aqueous solution of 0.25% agar and 0.85% NaCl and administered orally. After administration of 4 × 100 mg/kg over a period of 3 days, the animals were bled by cardiac puncture after privation of […] for 4 hours.^1
^1 H. Enomoto and R. Zschocke, 3rd Int. Symp. Atheroscler, Berlin 1973, Abstr. 238.
Serum lipids were determined with a Technicon autoanalyzer. Total cholesterol (TC) was tested by the Liebermann-Burchard reaction. Quantitative analysis for triglycerides (TG) was performed by Eggstein and Kreutz's enzyme method (Klin. Wschr. 44, 262, 1966), modified for autoanalyzer.
Lipid lowering effect is expressed as percent lowering of total cholesterol and triglycerides compared to controls.

[1] = read-out: % Lowering TC (total cholesterol)
[2] = read-out: % Lowering TG (triglycerides)

Row | Compound | inhibition in vivo at 100 mg/kg [1] [%] | inhibition in vivo at 100 mg/kg [2] [%]
1 | COC(=O)c1ccc(OCC(O)CNc2ccc(C(C)(C)C)cc2)cc1 (centres unmarked) [Compound 35] | 51.9 ± 9.3 | 79.2 ± 9
2 | COC(=O)C=Cc1ccc(OCC(O)CNc2ccc(C(C)(C)C)cc2)cc1 (centres unmarked) [Compound 37, 3-(4'-(2'-methoxycarbonylvinyl)-phenoxy)-1-(4'-t-butylphenylamino)-propanol-(2)] | 32.8 ± 13.7 | 71.9 ± 13.5
3 | COC(=O)c1ccc(OCC(O)CSc2ccc(Cl)cc2)cc1 (centres unmarked) [Compound 38] | 12.3 ± 14.6 | 53 ± 17.6
4 | COC(=O)C=Cc1ccc(OCC(O)CSc2ccc(Cl)cc2)cc1 (centres unmarked) [Compound 40, 3-(4'-(2-methoxycarbonylvinyl)-phenoxy)-1-(4'-chlorophenylmercapto)-propanol-(2)] | 9.6 ± 9.1 | 59.4 ± 14.7
5 | COC(=O)c1ccc(OCC(O)CSc2ccc(C(C)(C)C)cc2)cc1 (centres unmarked) [Compound 43] | 37.2 ± 13.8 | 71 ± 12.5
6 | COCCOC(=O)c1ccc(OCC(O)COc2ccc(Cl)cc2)cc1 (centres unmarked) [Compound 45] | 51.7 ± 12.2 | 75.8 ± 17.1
7 | O=C(C=Cc1ccc(OCC(O)COc2ccc(Cl)cc2)cc1)OCCO (centres unmarked) [Compound 46] | 32.3 ± 19.7 | 69.5 ± 8.9
8 | COCCOC(=O)C=Cc1ccc(OCC(O)COc2ccc(Cl)cc2)cc1 (centres unmarked) [Compound 47] | 44.4 ± 18 | 57.8 ± 10.7
9 | CC(C)(C)c1ccc(OCC(O)COc2ccc(C(=O)OCCO)cc2)cc1 (centres unmarked) [Compound 48] | 60.4 ± 6.7 | 85.5 ± 15.6
10 | COCCOC(=O)c1ccc(OCC(O)COc2ccc(C(C)(C)C)cc2)cc1 (centres unmarked) [Compound 49] | 33.1 ± 16.7 | 76.1 ± 14.6
11 | CC(C)(C)c1ccc(OCC(O)COc2ccc(C=CC(=O)OCCO)cc2)cc1 (centres unmarked) [Compound 50] | 49.3 ± 11.7 | 84.2 ± 5.4
12 | COCCOC(=O)C=Cc1ccc(OCC(O)COc2ccc(C(C)(C)C)cc2)cc1 (centres unmarked) [Compound 51] | 47.8 ± 10.4 | 77 ± 7.4
13 | O=C(OCCO)c1ccc(OCC(O)CNc2ccc(Cl)cc2)cc1 (centres unmarked) [Compound 52] | 50 ± 10 | 53.9 ± 13.3
14 | O=C(O)c1ccc(OCC(O)COc2ccc(Cl)cc2)cc1 (centres unmarked) [Compound 53, 3-(4'-Carboxyphenoxy)-1-(4'-chlorphenoxy)-propanol-(2)] | 40.5 ± 13.5 | 83.6 ± 15.5
15 | O=C(O)c1cccc(OCC(O)COc2ccc(Cl)cc2)c1 (centres unmarked) [Compound 54, 3-(3'-Carboxyphenoxy)-1-(4'-chlorphenoxy)-propanol-(2)] | 28.7 ± 10.2 | 80 ± 11.4
16 | O=C(O)C=Cc1ccc(OCC(O)COc2ccc(Cl)cc2)cc1 (centres unmarked) [Compound 55, 3-(4'-(2-carboxyvinyl)-phenoxy)-1-(4'-chlorophenoxy)propanol-(2)] | 45.4 ± 9.2 | 49.9 ± 23.7
17 | O=C(O)CCc1ccc(OCC(O)COc2ccc(Cl)cc2)cc1 (centres unmarked) [Compound 56, 3-4'-(2-Carboxyathyl)-phenoxy!-1-(4'-chlorphenoxy)-propanol-(2)] | 48 ± 12.9 | 76.7 ± 7.7

Row | Compound | inhibition in vivo at 100 mg/kg [1] [%] | inhibition in vivo at 100 mg/kg [2] [%]
18 | O=C(O)C=Cc1cccc(OCC(O)COc2ccc(Cl)cc2)c1 (centres unmarked) [Compound 57, 3-3'-(2-Carboxyvinyl)-phenoxy!-1-(4'-chlorphenoxy)-propanol-(2)] | 28.4 ± 11.1 | 61.8 ± 10.9
19 | O=C(O)CCc1cccc(OCC(O)COc2ccc(Cl)cc2)c1 (centres unmarked) [Compound 58, 3-3'-(2-Carboxyathyl)-phenoxy!-1-(4'-chlorphenoxy)-propanol-(2)] | 42.2 ± 5.6 | 71.3 ± 7.6
20 | CC(C)(C)c1ccc(OCC(O)COc2ccc(C(=O)O)cc2)cc1 (centres unmarked) [Compound 59, 3-(4'-Carboxyphenoxy)-1-(4'-t-butylphenoxy)-propanol-(2)] | 45.7 ± 14.3 | 66.7 ± 8.1
21 | CC(C)(C)c1ccc(OCC(O)COc2ccc(C=CC(=O)O)cc2)cc1 (centres unmarked) [Compound 61, 3-4'-(2-Carboxyvinyl)-phenoxy!-1-(4'-t-butylphenoxy)-propanol-(2)] | 44.9 ± 13.8 | 81.2 ± 17.1
22 | CC(C)(C)c1ccc(OCC(O)COc2ccc(CCC(=O)O)cc2)cc1 (centres unmarked) [Compound 62, 3-4'-(2-Carboxyathyl)-phenoxy!-1-(4'-t-butylphenoxy)-propanol-(2)] | 38.7 ± 15 | 91.9 ± 5
23 | O=C(O)c1ccc(OCC(O)CNc2ccc(Cl)cc2)cc1 (centres unmarked) [Compound 65, 3-(4'-Carboxyphenoxy)-1-(4'-chlorphenylamino)-propanol-(2)] | 20.9 ± 13.7 | 72.9 ± 11.3
24 | O=C(O)c1ccc(NCC(O)COc2ccc(Cl)cc2)cc1 (centres unmarked) [Compound 68, 3-(4'-Carboxyphenylamino)-1-(4'-chlorphenoxy)-propanol-(2)] | 15.2 ± 10 | 54.1 ± 17
25 | CC(C)(C)c1ccc(OCC(O)CNc2ccc(C(=O)O)cc2)cc1 (centres unmarked) [Compound 70, 3-(4'-Carboxyphenylamino)-1-(4'-t-butylphenoxy)-propanol-(2)] | 33.3 ± 12.2 | 78.1 ± 10.4
26 | CC(C)(C)c1ccc(OCC(O)CNc2cccc(C(=O)O)c2)cc1 (centres unmarked) [Compound 71, 3-(3'-Carboxyphenylamino)-1-(4'-t-butylphenoxy)-propanol-(2)] | 28.9 ± 9.5 | 58.4 ± 15.5
27 | CC(C)(C)c1ccc(NCC(O)COc2ccc(C(=O)O)cc2)cc1 (centres unmarked) [Compound 72, 3-(4'-Carboxyphenoxy)-1-(4'-t-butylphenylamino)-propanol-(2)] | 53.7 ± 10.4 | 75.1 ± 9.9
28 | CC(C)(C)c1ccc(NCC(O)COc2ccc(C=CC(=O)O)cc2)cc1 (centres unmarked) [Compound 74, 3-4'-(2-Carboxyvinyl)-phenoxy!-1-(4'-t-butylphenylamino)-propanol-(2)] | 50.7 ± 6.4 | 69.7 ± 9.6
29 | O=C(O)c1ccc(OCC(O)CSc2ccc(Cl)cc2)cc1 (centres unmarked) [Compound 75, 3-(4'-Carboxyphenoxy)-1-(4'-chlorphenylmercapto)-propanol-(2)] | 32.2 ± 8.7 | 55.8 ± 14.2
30 | O=C(O)C=Cc1ccc(OCC(O)CSc2ccc(Cl)cc2)cc1 (centres unmarked) [Compound 77, 3-4'-(2-Carboxyvinyl)-phenoxy!-1-(4'-chlorphenylmercapto)-propanol-(2)] | 55.5 ± 12.7 | 77.8 ± 12
31 | CC(C)(C)c1ccc(SCC(O)COc2ccc(C(=O)O)cc2)cc1 (centres unmarked) [Compound 80, 3-(4'-Carboxyphenoxy)-1-(4'-t-butylphenylmercapto)-propanol-(2)] | 48.2 ± 11.6 | 71.6 ± 18.6
32 | CC(C)(C)c1ccc(SCC(O)COc2ccc(C=CC(=O)O)cc2)cc1 (centres unmarked) [Compound 81, 3-4'-(2-Carboxyvinyl)-phenoxy!-1-(4'-t-butylphenylmercapto)-propanol-(2)] | 27.5 ± 12.7 | 58.7 ± 14.8
33 | O=C(OCCCl)c1ccc(OCC(O)COc2ccc(Cl)cc2)cc1 (centres unmarked) [Compound 82] | 53.9 ± 9.1 | 83.8 ± 6
34 | CN(C)CCOC(=O)c1ccc(OCC(O)COc2ccc(Cl)cc2)cc1 (centres unmarked) [Compound 83] | 46.2 ± 15.4 | 72.5 ± 11.1
